Assay results from PMC9046208, “Foldamers reveal and validate therapeutic targets associated with toxic α-synuclein self-assembly” (Nature Communications, 2022).

What was measured:
[1] = target: T1, αS aggregation in the presence of LUVs (DOPS) (Homo sapiens, UniProt P37840); assay: Lipid (LUVs, DOPS) catalyzed αS aggregation, ThT; assay type: biochemical; conditions: equimolar ratio
T1 construct: made in house; host or cells: Escherichia coli BL21(DE3), periplasm
Protocol: The aggregation kinetics of αS was monitored using ThT fluorescence assay (λex = 450 nm and λem = 485 nm). To study the aggregation kinetics of αS, the ThT dye at a final concentration of 50 μM was added to 100 μM αS solution in the aggregation buffer (1 x PBS buffer) with and without various concentrations of SK-129 in a Costar black 96–well plate (Corning Inc., Kennebunk, ME). The small molecules were dissolved in dimethyl sulfoxide (DMSO; final DMSO concentration = 0.5%, v/v). The final volume in each well was 140 μL. The plate was incubated at 37 °C with 16 min shaking (434 rpm) and 44 min without shaking in an Infinite M200PRO plate reader (Tecan, Männedorf, Switzerland) and fluorescence was recorded after every hour. We used two methods to quantify the effect of molecules on the aggregation of αS; either we have reported the t50 (time required to reach 50% fluorescence of ThT), which was extracted by fitting the ThT curve as a sigmoidal fit or the absolute ThT fluorescence intensity was reported. […] In the second method, we determined the final ThT fluorescence intensity for the aggregation of αS/Aβ42(with or without ligands) as an average of three separate experiments. […]
lipid-free and lipid-catalyzed aggregation of αS was monitored after 7 days. […]
equimolar ratio after four days. The data were expressed as mean and the error bars report the […]

[2] = tested on: HEK cells expressing αS-A53T-YFP; assay: MTT viability of HEK cells treated with PMCA samples / PD fibrils; assay type: cell-based; conditions: for Relative cell viability (Supp. Figure 27): HEK cells, PD+SK-129
Protocol: The HEK293 cells that stably express αS-A53T-YFP and αS-YFP were grown in DMEM with 10% FBS and 1% pen/strep and cultured in an incubator at 37 °C and 5% CO2(g). A total of 60,000 cells per well in 300 µL media were plated in a µ-slide eight-well plate (Ibidi, Munich, Germany) and incubated for 24 h to adhere to the plate. […] Next, the plate was incubated for 24 h, followed by the addition of 30 µL of 1x PBS buffer containing MTT dye (in 1x PBS buffer, 5 mg/mL) to each well. The plates were wrapped in aluminum foil and incubated for 3 h. After 3 h, all liquid was aspirated carefully without disturbing the formazan crystals. To each well, 300 µL of DMSO was added to dissolve the crystals. Once dissolved, the DMSO solution was transferred to a clear 96-well plate (100 µL/well). The absorbance was read on a 96-well plate reader at 570 nm. The cytotoxicity of the HEK cells was monitored for up to 4 days.
The seeds were generated by aggregating recombinant αS (100 µM) in the absence and presence of SK-129 at an equimolar ratio under the ThT aggregation kinetic conditions for seven days. In the case of seeds from the brain, we used a PMCA sample (5th cycle) generated from the brain seeds in the absence and presence of SK-129 at an equimolar ratio.
Supplementary Fig. 27. Effect of SK-129 on the PD fibrils catalyzed aggregation of αS templated by PMCA technique. a, The representative confocal images of HEK cells after treatment with PMCA samples from the PD and control brain. The green color images are due to the intracellularly expressed αSA53T-YFP. The αSA53T-YFP inclusions, αS-pS-129, and DAPI are represented by green, red, and blue colors. The αSA53T-YFP inclusions are indicated by white arrows. b, The αSA53T-YFP inclusions, P62, and DAPI are represented by green, red, and blue colors. The αSA53T-YFP inclusions are indicated by white arrows. c, The statistical analysis of the relative viability of HEK cells treated with the indicated conditions for 24 h determined using the MTT-reduction toxicity assay. The data were expressed as mean and the error bars report the s.e.m.
(n = 4 independent cell viability experiments and each n consisted of 4 technical replicates). The statistical analysis was performed using ANOVA with Tukey’s multiple comparison test. *p<0.05, **p<0.01, ***p<0.001, ****p<0.0001. Source data are provided as a Source Data file.

COC(=O)c1cc(OCC(=O)O)c2cccc(NC(=O)c3cc(OC(C)C)c4cccc(NC(=O)c5cc(OCC(=O)O)c6cccc(NC(=O)c7cc(OC(C)C)c8cccc([N+](=O)[O-])c8n7)c6n5)c4n3)c2n1 [SK-129]
effect on lipid catalyzed aggregation of αS [1]: wholly inhibited | Relative cell viability (Supp. Figure 27) ([2]; trial 1): 0.879 | Relative cell viability (Supp. Figure 27) ([2]; trial 2): 0.798 | Relative cell viability (Supp. Figure 27) ([2]; trial 3): 0.821 | Relative cell viability (Supp. Figure 27) ([2]; trial 4): 0.823 | Relative cell viability (Supp. Figure 27) ([2]; trial 5): 0.659 | Relative cell viability (Supp. Figure 27) ([2]; trial 6): 0.702 | Relative cell viability (Supp. Figure 27) ([2]; trial 7): 0.735 | Relative cell viability (Supp. Figure 27) ([2]; trial 8): 0.834 | Relative cell viability (Supp. Figure 27) ([2]; trial 9): 0.865 | Relative cell viability (Supp. Figure 27) ([2]; trial 10): 0.808 | Relative cell viability (Supp. Figure 27) ([2]; trial 11): 0.853 | Relative cell viability (Supp. Figure 27) ([2]; trial 12): 0.884 | Relative cell viability (Supp. Figure 27) ([2]; trial 13): 0.902 | Relative cell viability (Supp. Figure 27) ([2]; trial 14): 0.783 | Relative cell viability (Supp. Figure 27) ([2]; trial 15): 0.732 | Relative cell viability (Supp. Figure 27) ([2]; trial 16): 0.693 | cell viability of HEK cells ([2]; PD fibrils+SK-129, 24 h, MTT, PD fibrils alone 50.5 ± 5.4%): 85.6 ± 7.8%
